US20070203228A1, “Method for treating chronic obstructive pulmonary disease” (SUCAMPO AG, priority 2006, published 2007)
Entries after “also recorded” stand apart in the source; their conditions may differ. Marks after values point to notes of the source that are not given here.

Tests used:
[1] = test system: cigarette smoke-exposed guinea pigs; assay: Specific airway resistance (sRaw) in cigarette smoke-exposed guinea pigs; assay type: in vivo, guinea pig; details: for Specific airway resistance (sRaw) Mean ± S.D.: 30 min from 1 hr before smoke exposure, Days 1 to 25, measured Day 26, n=7, control 2.154 ± 0.365, sham 1.131 ± 0.149
Description: (§1) Guinea pigs were exposed to cigarette smoke using a smoking system (INH06-CIG01A, M.I.P.S. Inc.). Each animal was placed in an exposure holder, and the holder was fixed in an exposure chamber. Cigarette smoke of 30 cigarettes per day (Peace®, Japan Tobacco Inc.) was drawn from a smoke generator into the exposure chamber, 5 days per week, for 25 days (Days 1 to 25). In a sham exposure group, the atmospheric air, instead of cigarette smoke, was drawn into the exposure chamber.
(§2) Aqueous solution of Compound A (13,14-dihydro-15-keto-16,16-difluoro-18(S)-methyl-PGE1) was vaporized using a pressurized nebulizer (LC Plus Nebulizer, Pari GmbH) and inhaled by the animals in a chamber of an inhalation system (SIS-A, Sibata Scientific Technology Ltd.) for 30 minutes from 1 hr before the cigarette smoke exposure.
Specific airway resistance (sRaw) of conscious animals was measured by a double flow plethysmo-graph technique with a respiratory function measurement system (Pulmos-1, M.I.P.S Inc.) on Day 26.

[2] = test system: cigarette smoke-exposed guinea pigs; assay: Pulmonary function (RV, FEV100) in cigarette smoke-exposed guinea pigs; assay type: in vivo, guinea pig
Description: as §1, §2
After the sRaw measurements, animals were anesthetized with ketamine (60 mg/kg) and xylazine (8 mg/kg), and the trachea was cannulated. Pulmonary function was measured using a pulmonary function measurement system (Biosystem Manoeuvers, Buxco Electronics, Inc.). The parameters of measurement consisted of residual volume (RV) and forced expiratory volume at 100 msec (FEV100).

[3] = test system: cigarette smoke-exposed guinea pigs; assay: Macrophage (monocyte) count in bronchoalveolar lavage fluid of cigarette smoke-exposed guinea pigs; assay type: in vivo, guinea pig
Description: as §1, §2
After the measurement of pulmonary function, the animals were sacrificed by exsanguination under anesthesia and the thorax was opened. Five milliliters of saline were instilled into the lungs through a tracheal cannula, and the lavage fluid was recovered by gentle aspiration. This procedure was repeated and the recovered lavage fluid was combined (10 mL in total, bronchoalveolar lavage fluid, BALF). The number of macrophages (monocyte) in the BALF was counted.

[4] = test system: Human lung alveolar type II cells (A549); assay: Cytochrome c translocation after cigarette smoke extract (CSE) treatment, cytochrome c ELISA; assay type: cell-based
Protocol: Smoke from 8 cigarettes was drawn slowly through 100 ml of serum free culture medium and the resulting suspension was filtered through 0.20 μm filter. The solution was considered as 100% cigarette smoke extract (CSE). Human lung alveolar type II cells (A549) were grown in 96 well plates for 48 hrs at a final concentration of 1.5×10^5 cells per well. The cells were then treated separately with either 100 nM Compound A or 1%, 2.5% and 5% CSE. In other sets, 100 nM Compound A was added along with 1%, 2.5% or 5% CSE. All incubations were done at 37° C. for 24 hrs. After 24 hr treatment, the cells were washed with 0-4° C. PBS three times. Measurement of cytochrome c that was translocated into the cytosol, a marker of cellular injury, was performed according to the instructions provided with a kit for cytochrome c ELISA assay.

[5] = compared with the control group

In the case of `CC[C@H](C)CC(F)(F)C(=O)CC[C@H]1[C@H](O)CC(=O)[C@@H]1CCCCCCC(=O)O` [Compound A, 13,14-dihydro-15-keto-16,16-difluoro-18(S)-methyl-PGE1], the “Effect on increase in sRaw induced by cigarette smoke exposure” value [1, 5] is reported as “significantly inhibited the increase in sRaw”, the “Specific airway resistance (sRaw) Mean ± S.D.” value ([1]; inhaled aqueous solution 1 μg/mL) is reported as 1.417 ± 0.226 cmH2O · sec and the “Specific airway resistance (sRaw) Mean ± S.D.” value ([1]; inhaled aqueous solution 10 μg/mL) is reported as 1.383 ± 0.241 cmH2O · sec. The “Effect on decrease in FEV100 induced by cigarette smoke exposure” value [2, 5] was “significantly inhibited these changes”, the “Effect on increase in residual volume (RV) induced by cigarette smoke exposure” value [2, 5] was “significantly inhibited these changes” and the “RV (residual volume) Mean ± S.D.” value ([2]; inhaled aqueous solution 1 μg/mL, n=7, control 5.44 ± 1.43, sham 2.75 ± 1.45) was 3.45 ± 1.07 mL. The “FEV100 (forced expiratory volume at 100 msec) Mean ± S.D.” value ([2]; inhaled aqueous solution 1 μg/mL, n=7, control 5.75 ± 3.29, sham 9.87 ± 1.17) was 10.38 ± 1.08 mL, the “Effect on increase in number of macrophages (monocyte) in BALF induced by cigarette smoke exposure” value [3, 5] was “significantly inhibited the increase in number of macrophages (monocyte)” and the “Monocyte/Macrophage count in bronchoalveolar lavage fluid Mean ± S.D.” value ([3]; inhaled aqueous solution 1 μg/mL, n=7, control 14.42 ± 3.00, sham 4.52 ± 1.73) was 10.35 ± 2.53* 10^2 cells/μL. The “Cytosolic cytochrome c, compound alone” value ([4]; 100 nM Compound A alone, no CSE, 24 hours) was “Neither 0.1% DMSO (B) (vehicle for Compound A) nor Compound A (C) alone significantly affected cytosolic cytochrome c” and the “Cytochrome c translocation induced by CSE” value ([4]; 100 nM Compound A with 1%, 2.5% and 5% CSE, 24 hrs, compared to DMSO control (P<0.05, P<002 and P<0.005)) was “protected against the cytochrome c translocation induced by CSE; also recorded: significantly decreased cytochrome c translocation”.
